Data published in patent publication US8937039B2, “Peptide-based peroxidase inhibitors and methods of using same” (The Medical College of Wisconsin, Inc., priority 2009, dated 2015).
“Also recorded” adds a separate entry of the source. Residues, ends and D or L forms follow the SMILES beside them.

Columns and labels:
[1] = system: OVA-sensitized C57BL/6J mice; test: OVA-sensitized murine model of asthma (lung histology); type: in vivo, mouse; conditions: KYC 0.3 mg/kg every other day, 5 treatments
From the text: Murine Model of Experimentally-Induced Asthma. C57BL/6J mice (12-14 wk old) from Jackson Laboratory (Bar Harbor, Me.) were housed in sterile autoclavable microisolation cages and fed standard laboratory mouse chow and water ad libitum. All protocols were approved by the Institutional Animal Care and Use Committee (IACUC) of the Medical College of Wisconsin.
C57BL/6J mice were divided into three groups; a control group (Control), an ovalbumin (OVA)-sensitized group and an OVA-sensitized group treated with KYC. OVA sensitization was achieved using a modification of a protocol previously described by de Siqueira et al^15 (FIG. 1). […] When mice inhale aerosolized OVA, robust allergic responses are routinely observed.
Briefly, on day one, mice were anesthetized (halothane; Halocarbon Laboratories, River Edge, N.J.) and a heat-denatured OVA fragment (˜80 mg, 5×2×2 mm) was implanted subcutaneously in the dorsal aspect of the neck. The incision was closed with stainless steel clips and the mouse was allowed to recover. Implantation of the heat-denatured OVA fragment initiates sensitization. On day fifteen, the implanted mice were exposed to aerosolized OVA (6% in PBS) for 30 minutes every other day for ten days. Twenty-four hours after the last OVA challenge, the mice were deeply anesthetized (halothane), sacrificed by exsanguination and the lungs removed for analysis. […]

[2] = Solubility in aqueous buffers; type: physicochemical
[3] = target: T1, MPO (Homo sapiens, UniProt P05164); test: MPO-catalyzed HOCl production (taurine/TMB assay); type: biochemical; set-up: purchased Lee Biosolutions (St. Louis, Mo.)
T1 sequence (P05164 49-745): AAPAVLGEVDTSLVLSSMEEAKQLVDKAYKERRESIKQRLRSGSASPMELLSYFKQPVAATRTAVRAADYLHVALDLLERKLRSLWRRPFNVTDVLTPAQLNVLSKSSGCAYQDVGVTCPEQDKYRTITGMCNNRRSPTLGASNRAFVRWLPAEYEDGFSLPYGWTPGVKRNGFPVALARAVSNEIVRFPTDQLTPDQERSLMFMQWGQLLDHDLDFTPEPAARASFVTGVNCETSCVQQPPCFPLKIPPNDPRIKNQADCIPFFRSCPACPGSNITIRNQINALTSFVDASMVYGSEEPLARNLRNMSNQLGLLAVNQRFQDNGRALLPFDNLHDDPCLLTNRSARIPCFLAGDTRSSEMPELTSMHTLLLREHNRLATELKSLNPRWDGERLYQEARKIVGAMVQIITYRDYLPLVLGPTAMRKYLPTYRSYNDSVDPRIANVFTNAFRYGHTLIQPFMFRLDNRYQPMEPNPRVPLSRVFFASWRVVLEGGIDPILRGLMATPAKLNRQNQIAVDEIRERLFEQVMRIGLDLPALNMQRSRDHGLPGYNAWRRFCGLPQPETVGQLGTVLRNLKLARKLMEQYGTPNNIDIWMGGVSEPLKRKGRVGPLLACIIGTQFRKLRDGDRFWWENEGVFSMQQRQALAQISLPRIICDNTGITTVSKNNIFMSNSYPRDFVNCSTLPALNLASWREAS
Protocol: MPO-mediated HOCl Production. MPO (20 nM) was incubated with H2O2 (50 μM), NaCl (150 mM), taurine (5 mM) and increasing concentrations of KYC in phosphate buffer (100 mM, pH 7.4) which also contained diethylene triamine pentaacetic acid (DTPA, 100 μM) to prevent non-specific, divalent metal cation oxidation for 30 min. Reactions were halted by addition of catalase. Chlorotaurine was quantified using the 3,3-,5,5-tetramethylbenzidine (TMB) assay. Briefly, 400 μL of reaction solution was mixed with 100 μL of 2 mM TMB, 100 μM NaI containing 10% dimethylformamide (DMF) in 400 mM acetate buffer (pH 5.4). After 5 min, absorbance (650 nm) was recorded on a UV/Vis spectrophotometer (Agilent Model 8453).
MPO-catalyzed HOCl Production: MPO (20 nM) was incubated with H2O2 (50 μM), NaCl (150 mM), taurine (5 mM) and increasing concentrations of KYC in a phosphate buffer (100 mM, pH 7.4) containing diethylene triamine pentaacetic acid (DTPA, 100 μM) to prevent non-specific, divalent metal cation oxidation for 30 min. Reactions were halted by addition of catalase (2,000 units/mL). Chlorotaurine was quantified using the TMB assay (66). Briefly, 400 μL of reaction solution was mixed with 100 μL of 2 mM TMB, 100 μM NaI containing 10% dimethylformamide (DMF) in 400 mM acetate buffer (pH 5.4). After 5 min, absorbance (650 nm) was recorded on a UV/Vis spectrophotometer (Agilent Model 8453).

[4] = target: T1, MPO; test: MPO-mediated LDL malondialdehyde (MDA) formation; type: biochemical; set-up: purchased Lee Biosolutions (St. Louis, Mo.); conditions: increasing concentrations; 37° C., 4 h
Protocol: MPO-mediated LDL Malondialdehyde (MDA) Formation: Reaction mixtures contained LDL (0.5 mg/mL), NaNO2 (50 μM), H2O2 (50 μM), MPO (50 nM) and increasing concentrations of KYC in a phosphate buffer (100 mM, pH 7.4) containing DTPA (100 μM). After incubation at 37° C. for 4 h, the reactions were stopped by addition of catalase (2,000 units/mL). The formation of MDA was determined according to a published procedure. Briefly, incubation mixtures (containing 25 mM BHT) were adjusted to pH 1.5 and incubated at 60° C. for 80 min to hydrolyze the Schiff Bases formed from MDA and protein. The samples were mixed with 3-fold volume of N-methyl-2-phenylindole (13.4 mM in acetonitrile/methanol (3:1)). After centrifugation (13000 g, 5 min) 330 μL of the supernatants were mixed with 57.5 μL of concentrated HCl and incubated at 45° C. for another 60 min. Finally, after centrifugation (13000 g, 5 min), total MDA in the samples was determined from the absorbance at 586 nm using a UV-Vis spectrophotometer (Agilent Model 8453).

Solubility in water / aqueous buffers (in words) [2]: highly water soluble
IC50 ([3]; MPO 20 nM, H2O2 50 μM, NaCl 150 mM, taurine 5 mM, 30 min, read-out: IC50 for inhibition of MPO-catalyzed HOCl formation): ~7 µM
MPO-mediated MDA formation in LDL (in words) [4]: dose-dependently inhibited
Structure (SMILES): CC(=O)N[C@@H](CCCCN)C(=O)N[C@@H](Cc1ccc(O)cc1)C(=O)N[C@@H](CS)C(N)=O [KYC, N-acetyl Lysyltyrosylcysteine Amide] (Ac-Lys-Tyr-Cys-NH2)
Eosinophil infiltration in the lungs (in words) ([1]; H&E): markedly reduce eosinophil infiltration to essentially control levels
Collagen deposition in the lungs (in words) ([1]; trichrome): markedly reduces collagen deposition to control levels
Effect on MPO HOCl production at equimolar concentration (in words) ([3]; 12.5 μM): comparable to that of tryptophan; also recorded: significantly more effective
MPO-dependent HOCl production at 25 μM (in words) ([3]; 25 μM peptide): completely inhibited; also recorded: completely ablated
